Earlier results as cited in US20140329781A1, “METHODS FOR TREATING CARDIOVASCULAR DISORDER” (WOCKHARDT LIMITED, priority 2011, published 2014).

Key:
albumin = albumin (Homo sapiens, UniProt P02768)
[1] = water

Chain of albumin (P02768 25-609, species assumed): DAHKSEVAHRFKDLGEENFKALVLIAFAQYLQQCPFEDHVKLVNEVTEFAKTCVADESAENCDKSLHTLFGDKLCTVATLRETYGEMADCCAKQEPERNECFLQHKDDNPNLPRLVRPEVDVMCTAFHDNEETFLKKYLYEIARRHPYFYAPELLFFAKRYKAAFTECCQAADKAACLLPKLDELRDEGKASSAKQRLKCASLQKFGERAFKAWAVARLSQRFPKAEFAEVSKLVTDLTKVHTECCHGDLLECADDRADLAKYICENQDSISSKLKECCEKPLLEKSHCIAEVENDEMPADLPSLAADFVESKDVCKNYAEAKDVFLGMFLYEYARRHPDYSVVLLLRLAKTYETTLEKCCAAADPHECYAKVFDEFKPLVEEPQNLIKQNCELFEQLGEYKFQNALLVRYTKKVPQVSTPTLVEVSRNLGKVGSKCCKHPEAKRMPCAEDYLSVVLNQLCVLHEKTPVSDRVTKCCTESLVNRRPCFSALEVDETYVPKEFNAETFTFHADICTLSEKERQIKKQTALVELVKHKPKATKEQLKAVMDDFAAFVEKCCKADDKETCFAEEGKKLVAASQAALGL

Row | bioavailability (in words) (extensive first pass metabolism in the liver) | protein bound to albumin (albumin) | solubility (in words) [1] | bioavailability (incomplete due to extensive first pass metabolism) | Compound
1 | low | 94-98% | poorly water-soluble |  | COC(=O)[C@H](c1ccccc1Cl)N1CCc2sccc2C1 [Clopidogrel]
2 |  |  | highly soluble | about 50% | COCCc1ccc(OCC(O)CNC(C)C)cc1 (centres unmarked) [Metoprolol]
